From patent publication US20210323977A1, “PYRROLIDINYL AMIDE COMPOUNDS FOR THE TREATMENT OF AUTOIMMUNE DISEASE” (Hoffmann-La Roche Inc., priority 2018, published 2021) come the findings set out here.

The experiment deals with T1, human TLR8 (Homo sapiens, UniProt Q9NR97).
T1 sequence (Q9NR97 27-1041): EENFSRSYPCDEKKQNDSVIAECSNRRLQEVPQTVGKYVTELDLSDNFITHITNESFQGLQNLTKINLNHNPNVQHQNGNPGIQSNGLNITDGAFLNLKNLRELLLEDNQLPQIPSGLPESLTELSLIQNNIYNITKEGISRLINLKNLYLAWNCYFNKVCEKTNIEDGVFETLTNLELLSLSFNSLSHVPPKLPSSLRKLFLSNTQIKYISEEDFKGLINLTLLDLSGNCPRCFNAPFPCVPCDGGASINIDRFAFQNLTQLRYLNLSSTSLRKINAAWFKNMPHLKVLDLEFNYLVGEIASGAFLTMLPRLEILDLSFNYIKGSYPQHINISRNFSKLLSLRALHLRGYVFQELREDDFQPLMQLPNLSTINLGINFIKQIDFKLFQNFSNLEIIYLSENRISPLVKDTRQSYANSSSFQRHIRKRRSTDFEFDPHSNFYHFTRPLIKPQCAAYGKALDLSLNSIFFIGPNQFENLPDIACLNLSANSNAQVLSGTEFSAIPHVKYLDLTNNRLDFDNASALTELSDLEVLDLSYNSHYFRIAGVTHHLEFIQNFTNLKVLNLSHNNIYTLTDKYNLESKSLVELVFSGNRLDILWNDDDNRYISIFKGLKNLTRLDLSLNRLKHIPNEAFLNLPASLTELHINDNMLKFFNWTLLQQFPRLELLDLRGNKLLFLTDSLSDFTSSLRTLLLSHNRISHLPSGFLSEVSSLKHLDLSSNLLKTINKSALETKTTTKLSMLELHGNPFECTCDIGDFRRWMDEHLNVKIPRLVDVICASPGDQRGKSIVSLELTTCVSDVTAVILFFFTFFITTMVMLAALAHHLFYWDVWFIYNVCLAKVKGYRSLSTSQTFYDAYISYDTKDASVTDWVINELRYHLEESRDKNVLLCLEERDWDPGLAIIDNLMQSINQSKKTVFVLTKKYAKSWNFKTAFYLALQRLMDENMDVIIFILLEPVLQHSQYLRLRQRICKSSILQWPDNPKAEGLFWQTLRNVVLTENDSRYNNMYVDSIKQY
As to the kind of experiment: HEK293-Blue-hTLR-8 cells assay. Format: cell-based. Particulars: HEK293-Blue-hTLR8 cells, SEAP reporter, R848 stimulation, 20 hrs. From the text: HEK293-Blue-hTLR-8 Cells Assay:
A stable HEK293-Blue-hTLR-8 cell line was purchased from InvivoGen (Cat. #: hkb-htlr8, San Diego, Calif., USA). These cells were originally designed for studying the stimulation of human TLR8 by monitoring the activation of NF-κB. A SEAP (secreted embryonic alkaline phosphatase) reporter gene was placed under the control of the IFN-β minimal promoter fused to five NF-κB and AP-1-binding sites. The SEAP was induced by activating NF-κB and AP-1 via stimulating HEK-Blue hTLR8 cells with TLR8 ligands. Therefore the reporter expression was declined by TLR8 antagonist under the stimulation of a ligand, such as R848, for incubation of 20 hrs. The cell culture supernatant SEAP reporter activity was determined using QUANTI-Blue™ kit (Cat. #: rep-qb1, Invivogen, San Diego, Ca, USA) at a wavelength of 640 nm, a detection medium that turns purple or blue in the presence of alkaline phosphatase.
HEK293-Blue-hTLR8 cells were incubated at a density of 250,000-450,000 cells/mL in a volume of 170 μL in a 96-well plate in Dulbecco's Modified Eagle's medium (DMEM) containing 4.5 g/L glucose, 50 U/mL penicillin, […], […], 2 mM L-glutamine, 10% (v/v) heat-inactivated fetal bovine serum with addition of 20 μL test compound in a serial dilution in the presence of final DMSO at 1% and 10 sL of 60 uM R848 in above DMEM, perform incubation under 37° C. in a CO2 incubator for 20 hrs. Then 20 μL of the supernatant from each well was incubated with 180 sL Quanti-blue substrate solution at 37° C. for 2 hrs and the absorbance was read at 620˜655 nm using a spectrophotometer. The signalling pathway that TLR8 activation leads to downstream NF-κB activation has been widely accepted, and therefore similar reporter assay was modified for evaluating TLR8 antagonist.
The term IC50 denotes the midpoint of a concentration-inhibition curve. The low end stands for greater potency, the high end for weaker potency. `NC1CC(CNC(=O)C2CN(c3ccc(C(F)(F)F)c4nccnc34)CC23CC3)C1` (stereo not drawn) [Example 31, N-[(3-aminocyclobutyl)methyl]-5-[8-(trifluoromethyl)quinoxalin-5-yl]-5-azaspiro[2.4]heptane-7-carboxamide] registered a half-maximal inhibitory concentration (IC50) of 167 nM. `N[C@H]1CC[C@@H](NC(=O)C2CN(c3ccc(C(F)(F)F)c4nccnc34)CC23CC3)CC1` (stereo partly drawn) [Example 39, N-(4-Aminocyclohexyl)-5-[8-(trifluoromethyl)quinoxalin-5-yl]-5-azaspiro[2.4]heptane-7-carboxamide]: the half-inhibitory concentration (IC50) came to 447 nM. In the case of `CN1CCC(NC(=O)C2CN(c3ccc(C#N)c4nccnc34)CC23CC3)CC1` (single isomer, unassigned) [Example 7A, 5-(8-Cyanoquinoxalin-5-yl)-N-(1-methyl-4-piperidyl)-5-azaspiro[2.4]heptane-7-carboxamide], the half-inhibitory concentration (IC50) is 7 nM.

For `CN1CCC(NC(=O)[C@@H]2CN(c3ccc(C#N)c4ncccc34)C[C@H]2C(F)(F)F)CC1` (relative stereo) [Example 17, Trans-1-(8-cyano-5-quinolyl)-N-(1-methyl-4-piperidyl)-4-(trifluoromethyl)pyrrolidine-3-carboxamide], the midpoint of inhibition, the IC50, lay at 66 nM. Against the preceding compound, the IC50 is about 9.4-fold higher. `C[C@@H]1CN(c2ccc(C#N)c3ncccc23)C[C@H]1C(=O)NC1CCCNCC1` (single isomer, unassigned) [Example 52A, Trans-N-(azepan-4-yl)-1-(8-cyano-5-quinolyl)-4-methyl-pyrrolidine-3-carboxamide] returned an IC50 of 225 nM. Compared with the last compound, the IC50 is about 3.4-fold higher. `CN1CCCC(CNC(=O)C2CN(c3ccc(C#N)c4ncccc34)CC23CC3)C1` (stereo not drawn) [Example 51, 5-(8-Cyano-5-quinolyl)-N-[(1-methyl-3-piperidyl)methyl]-5-azaspiro[2.4]heptane-7-carboxamide] yielded an IC50 of 398 nM. Compound `C[C@@H]1CN(c2ccc(C#N)c3ncccc23)C[C@H]1C(=O)NC1CCCNCC1` (single isomer, unassigned) [Example 52B, Trans-N-(azepan-4-yl)-1-(8-cyano-5-quinolyl)-4-methyl-pyrrolidine-3-carboxamide] showed a half-inhibitory concentration (IC50) of 274 nM. In turn, `O=C(NC1CC2CNCC(C2)C1)C1CN(c2ccc(C(F)(F)F)c3nccnc23)CC12CC2` (stereo not drawn) [Example 15, N-(3-azabicyclo[3.3.1]nonan-7-yl)-5-[8-(trifluoromethyl)quinoxalin-5-yl]-5-azaspiro[2.4]heptane-7-carboxamide] returned a half-maximal inhibitory concentration (IC50) of 156 nM.

In turn, `CN1CCC(NC(=O)C2CN(c3ccc(C#N)c4nccnc34)CC23CC3)CC1` (single isomer, unassigned) [Example 7B, 5-(8-Cyanoquinoxalin-5-yl)-N-(1-methyl-4-piperidyl)-5-azaspiro[2.4]heptane-7-carboxamide] had an IC50 of 26 nM.

In the case of `O=C(NC1CC2CCC(C1)N2)C1CN(c2ccc(C(F)(F)F)c3nccnc23)CC12CC2` (stereo not drawn) [Example 23, N-(8-azabicyclo[3.2.1]octan-3-yl)-5-[8-(trifluoromethyl)quinoxalin-5-yl]-5-azaspiro[2.4]heptane-7-carboxamide], half-maximal inhibition (IC50) required 243 nM. Against the preceding compound, the IC50 is about 9.3-fold higher. For `CN1CCC(NC(=O)[C@@H]2CN(c3ccc(Cl)c4ncccc34)C[C@H]2C(F)(F)F)CC1` (relative stereo) [Example 46, Trans-1-(8-chloro-5-quinolyl)-N-(1-methyl-4-piperidyl)-4-(trifluoromethyl)pyrrolidine-3-carboxamide], inhibition was half-maximal at 51 nM (IC50). This IC50 lies about 4.8-fold lower than the previous one. Compound `CC(C)[C@@H]1CN(c2ccc(C#N)c3ncccc23)C[C@H]1C(=O)NC1CCN(C)CC1` (relative stereo) [Example 37, Trans-1-(8-cyano-5-quinolyl)-4-isopropyl-N-(1-methyl-4-piperidyl)pyrrolidine-3-carboxamide] showed a concentration for half-maximal inhibition (IC50) of 489 nM.

`C[C@H]1CN(c2ccc(C#N)c3ncccc23)C[C@@H]1C(=O)NC1CCN(C)CC1` [Example 16, (3R,4R)-1-(8-cyano-5-quinolyl)-4-methyl-N-(1-methyl-4-piperidyl)pyrrolidine-3-carboxamide] came in with a half-maximal inhibitory concentration (IC50) of 72 nM. As for `N#Cc1ccc(N2CC(C(=O)NC[C@@H]3CNCCO3)C3(CC3)C2)c2nccnc12` (single isomer, unassigned) [Example 71A], the IC50 worked out at 75 nM. The IC50 values of the last two compounds are within 1.5-fold of each other. In the case of `O=C(NC1CC2CNCC2C1)C1CN(c2ccc(C(F)(F)F)c3nccnc23)CC12CC2` (stereo not drawn) [Example 21, N-(1,2,3,3a,4,5,6,6a-octahydrocyclopenta[c]pyrrol-5-yl)-5-[8-(trifluoromethyl)quinoxalin-5-yl]-5-azaspiro[2.4]heptane-7-carboxamide] it was 77 nM. In the case of `CN(C)CC1CC(NC(=O)C2CN(c3ccc(C(F)(F)F)c4nccnc34)CC23CC3)C1` (stereo not drawn) [Example 26, N-[3-[(dimethylamino)methyl]cyclobutyl]-5-[8-(trifluoromethyl)quinoxalin-5-yl]-5-azaspiro[2.4]heptane-7-carboxamide] it was 44 nM; in that of `N[C@@H]1C[C@H](NC(=O)C2CN(c3ccc(C(F)(F)F)c4nccnc34)CC23CC3)[C@@H]2C[C@@H]21` (stereo partly drawn) [Example 36, N-[(1R,2S,4R,5S)-4-amino-2-bicyclo[3.1.0]hexanyl]-5-[8-(trifluoromethyl)quinoxalin-5-yl]-5-azaspiro[2.4]heptane-7-carboxamide], 251 nM; in that of `C[C@@H]1CN(c2ccc(C(F)(F)F)c3nccnc23)C[C@H]1C(=O)NC1CCN(C)CC1` [Example 25, (3S,4S)-4-Methyl-N-(1-methyl-4-piperidyl)-1-[8-(trifluoromethyl)quinoxalin-5-yl]pyrrolidine-3-carboxamide], 152 nM. The compound `N#Cc1ccc(N2C[C@H](C(=O)NC3CCN(C4CCNCC4)CC3)[C@@H](C(F)(F)F)C2)c2nccnc12` [Example 35, (3R,4R)-1-(8-Cyanoquinoxalin-5-yl)-N-[1-(4-piperidyl)-4-piperidyl]-4-(trifluoromethyl)pyrrolidine-3-carboxamide] displayed a concentration for half-maximal inhibition (IC50) of 38 nM. Under `CN1CCC(NC(=O)[C@H]2CN(c3ccc(C#N)c4nccnc34)C[C@@H]2C(F)(F)F)CC1` [Example 1, (3R,4R)-1-(8-cyanoquinoxalin-5-yl)-N-(1-methyl-4-piperidyl)-4-(trifluoromethyl) pyrrolidine-3-carboxamide] stands 13 nM; under `CN1CCC(NC(=O)[C@H]2CN(c3ccc(C(F)(F)F)c4nccnc34)C[C@@H]2C(F)(F)F)CC1` [Example 2, (3R,4R)—N-(1-methyl-4-piperidyl)-4-(trifluoromethyl)-1-[8-(trifluoromethyl)quinoxalin-5-yl]pyrrolidine-3-carboxamide], 18 nM. In turn, `N[C@@H]1CCC[C@H](NC(=O)C2CN(c3ccc(C(F)(F)F)c4nccnc34)CC23CC3)C1` (relative stereo) [Example 43, Cis-N-(3-aminocyclohexyl)-5-[8-(trifluoromethyl)quinoxalin-5-yl]-5-azaspiro[2.4]heptane-7-carboxamide] had an IC50 of 124 nM. The compound `CN1CCC(NC(=O)[C@H]2CN(c3ccc(C#N)c4ncccc34)C[C@@H]2C(F)(F)F)CC1` [Example 4, (3R,4R)-1-(8-cyano-5-quinolyl)-N-(1-methyl-4-piperidyl)-4-(trifluoromethyl)pyrrolidine-3-carboxamide] returned an IC50 of 25 nM.

For the compound `C[C@H]1CN(c2ccc(C#N)n3nccc23)C[C@@H]1C(=O)NC1CCN(C)CC1` [Example 44, (3R,4R)-1-(7-cyanopyrazolo[1,5-a]pyridin-4-yl)-4-methyl-N-(1-methyl-4 piperidyl)pyrrolidine-3-carboxamide], the IC50 came out at 404 nM.
